In PubChem BioAssay AID1645866 (Buhrlage Lab, Dana-Farber Cancer Institute and Novartis …, 2021) one finds IC50 data, which are given here for 65 compounds.

This assay concerns the target Ubiquitin carboxyl-terminal hydrolase 28 (Homo sapiens) (UniProt Q96RU2). Put plainly: Ubiquitin-specific peptidase 28 DUB inhibitors, biochemical concentration-dependence assay, validation of primary screening hits (AID 1645866). As to conditions: purified USP28, ubiquitin-rhodamine fluorescence, 30 min.

The source made the active and inactive calls.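 The calls were made as follows: active = in confirmatory dose-response testing, peak deubiquitinase inhibition of 30% or more; inactive = the rest.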 Some results are limits rather than exact numbers.

Ubiquitin carboxyl-terminal hydrolase 28 (Homo sapiens), sequence (Q96RU2 whole entry, looked up): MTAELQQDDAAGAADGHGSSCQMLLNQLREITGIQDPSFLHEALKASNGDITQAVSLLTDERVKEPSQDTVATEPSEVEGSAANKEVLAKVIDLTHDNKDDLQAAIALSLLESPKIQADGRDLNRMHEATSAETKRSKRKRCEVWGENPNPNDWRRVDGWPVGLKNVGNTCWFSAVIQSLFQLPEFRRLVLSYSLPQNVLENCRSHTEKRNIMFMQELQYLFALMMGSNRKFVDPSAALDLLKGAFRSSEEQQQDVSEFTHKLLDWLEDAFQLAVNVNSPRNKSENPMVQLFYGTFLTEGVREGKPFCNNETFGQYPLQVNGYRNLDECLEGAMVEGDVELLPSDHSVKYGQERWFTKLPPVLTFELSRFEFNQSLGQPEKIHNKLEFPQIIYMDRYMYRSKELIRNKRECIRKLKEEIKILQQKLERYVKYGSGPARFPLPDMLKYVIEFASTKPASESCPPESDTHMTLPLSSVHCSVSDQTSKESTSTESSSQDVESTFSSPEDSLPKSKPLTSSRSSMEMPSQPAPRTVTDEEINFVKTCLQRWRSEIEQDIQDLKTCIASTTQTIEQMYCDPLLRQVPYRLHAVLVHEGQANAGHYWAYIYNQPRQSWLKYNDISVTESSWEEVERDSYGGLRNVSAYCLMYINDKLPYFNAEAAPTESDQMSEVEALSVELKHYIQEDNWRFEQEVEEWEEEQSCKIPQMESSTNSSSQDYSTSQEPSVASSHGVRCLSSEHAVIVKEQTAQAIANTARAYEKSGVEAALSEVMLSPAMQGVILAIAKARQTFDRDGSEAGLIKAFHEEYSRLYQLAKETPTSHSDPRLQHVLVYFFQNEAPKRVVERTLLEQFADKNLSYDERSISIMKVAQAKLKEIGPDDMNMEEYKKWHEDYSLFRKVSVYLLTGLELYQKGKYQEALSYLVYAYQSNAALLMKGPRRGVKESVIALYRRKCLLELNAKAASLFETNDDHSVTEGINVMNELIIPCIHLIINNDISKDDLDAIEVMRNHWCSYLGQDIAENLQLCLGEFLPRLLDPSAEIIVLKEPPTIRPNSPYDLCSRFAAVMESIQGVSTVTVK

A word on the IC50: it is the midpoint of a concentration-inhibition curve. Take `CNC(=O)c1cc2nc(N(C)C)n(-c3ccc(F)cc3)c2s1`: the IC50 is 11.6 µM.

Turning to `COc1ccc(C)cc1NC(=O)COc1ccc2c(c1)OCO2`, the IC50 is 49.6 µM.

For the compound `COc1cc2c(cc1NC(=O)c1ccc(-n3cnnn3)cc1)oc1ccccc12`, the IC50 is 1.33 µM.

For the compound `Cc1cccc(NC(=O)Cn2cnc(-c3noc(-c4ccccc4)n3)c2)c1C`, the IC50 is 1.31 µM.

As to `FC(F)(F)c1cccc(N2CCN(c3nc4ccccc4n4nnnc34)CC2)c1`, the IC50 was > 50 µM (inactive).

Turning to `O=C(Nc1ccccc1)c1cn(-c2cc(N3CCCC3)ncn2)cn1`, the IC50 is > 50 µM (inactive).

With `Cn1c(C(=O)NCc2ccccn2)cc2c(=O)[nH]c3ccccc3c21`, the IC50 was > 50 µM (inactive).

As to `CCOc1ccc(-c2nc(C#N)c(N3CCN(C(=O)c4ccccc4C)CC3)o2)cc1`, the IC50 is 12 µM.

`COc1ncccc1CN1CCn2c(Cn3cncn3)cnc2C1C` (stereo not given): the IC50 was > 50 µM (inactive).

As to `CCN(C(=O)c1cc2c(s1)-c1ccccc1OC2)c1ccccc1F`, the 50% inhibitory concentration (IC50) was 19.6 µM.

Regarding `O=C(Cc1ccccc1F)N1CCC2(CC1)CC1(CO2)Nc2ccccc2-n2cccc21` (stereo not given), the IC50 was > 50 µM (inactive).

As for `COc1ccc(C(=O)C2CC(=O)Nc3c2c(C)nn3-c2ccc(Br)cc2)cc1` (stereo not given), the IC50 is 20.1 µM.

Consider `O=C(Nc1cc(F)c2nc(N3CCCC3)ccc2c1)c1ccco1`, for which the IC50 was > 50 µM (inactive).

On to `COc1cccc(CC(=O)Nc2cc(F)c3nc(N4CCOCC4)ccc3c2)c1`, for which the IC50 is > 50 µM (inactive).

With `O=C(/C=C/c1ccc(F)cc1)N1CCc2ccccc2C1`, the IC50 is 35.1 µM.

With `Cc1ccc(NC(=O)c2ccc(Nc3nnc(C)c4ccccc34)cc2)cc1`, the IC50 is 6.02 µM.

Take `CCOc1ccc(N2C(=O)c3ccccc3C2C(=O)NCc2ccccc2OC)cc1` (stereo not given): the IC50 is 29.8 µM.

Consider `Cc1nn(-c2ccc([N+](=O)[O-])cc2)c(C)c1-c1nc2ccccc2[nH]1`, for which the half-inhibitory concentration (IC50) was 21 µM.

Take `COc1cccc(CN2CCc3nc4nc(C)ccc4cc3C2)c1`: the IC50 is > 50 µM (inactive).

Turning to `CCN(Cc1ccccc1)S(=O)(=O)c1ccc(C(=O)Nc2ccc3c(c2)OCCO3)cc1`, the IC50 is 5.98 µM.

As to `Cc1ccccc1NC(=O)c1ccc(N2CCCCC2)nn1`, the IC50 was > 50 µM (inactive).

Turning to `CC(=O)N1CCc2cc(S(=O)(=O)NC(Cc3ccccc3)C(=O)Nc3cccc(Cl)c3C)ccc21` (stereo not given), the IC50 is 9.5 µM.

In the case of `CN[C@H]1CC2(CCN(C(=O)CCCn3cccn3)CC2)OC[C@]1(C)O`, the IC50 is > 50 µM (inactive).

In the case of `CCC(=O)Nc1ccccc1-c1nc2ccccc2n(CC(=O)Nc2cc(OC)ccc2OC)c1=O`, the IC50 is 14 µM.

With `O=S1(=O)CCN(Cc2ccccc2)c2c(F)nc(N3CCCCC3)c(F)c21`, the IC50 was > 50 µM (inactive).

Regarding `Nc1ccc(F)c(NS(=O)(=O)c2ccccc2)c1`, the IC50 is > 50 µM (inactive).

For the compound `Cc1nn(CC(=O)Nc2ccc(Br)c3cccnc23)c(=O)c2ccccc12`, the IC50 is 21.5 µM.

As for `CCC(C)NC(=O)Cn1c(=O)n(-c2ccccc2)c(=O)c2ccc(C(=O)NCc3ccco3)cc21` (stereo not given), the IC50 is 37.9 µM.

On to `Cc1cccc(-n2nc(C)c3c2NC(=O)CC3C(=O)c2cc3ccccc3o2)c1` (stereo not given), for which the IC50 was 25.3 µM.

As to `CC(C)c1cc(Nc2cccc(F)c2)n2nc(-c3cccnc3)nc2n1`, the IC50 was 24.8 µM.

Consider `Cn1c(=O)c(C(=O)CN2CCN(c3ccc(O)cc3)CC2)c(N)n(Cc2ccccc2)c1=O`, for which the IC50 was 49.4 µM.

As to `Cc1noc(-c2cccn(Cc3cccc(C(F)(F)F)c3)c2=O)n1`, the IC50 was 8.11 µM.

For the compound `Cc1ccccc1-c1noc(-c2ccccc2OCC(=O)NC(C)C)n1`, the IC50 was > 50 µM (inactive).

Take `O=C(NCc1cccnc1)c1cnn2c(C(F)(F)F)cc(-c3ccc(F)cc3)nc12`: the 50% inhibitory concentration (IC50) was 47.4 µM.

For `CCOc1ccccc1-c1nc(-c2nnn(Cc3ccccc3)c2C)no1`, the IC50 is > 50 µM (inactive).

Turning to `O=C(NCc1ccccc1)c1ccc2c(=O)n(-c3ccccc3)c(=O)[nH]c2c1`, the concentration for half-maximal inhibition (IC50) is 18.6 µM.

As to `CC1CCN(c2nc(F)c3c(c2F)S(=O)(=O)CCN3Cc2cccnc2)CC1`, the IC50 is > 50 µM (inactive).

On to `O=C(Nc1nnc2n1CCCS2)c1cc2ccccc2o1`, for which the IC50 was 4.43 µM.

Consider `C/C1=C\CCC(C)C(O)CC(O)C(C)C(O)CCC(C)C(O)CC2(O)OC(CC(OC(=O)CC(=O)O)CC(O)CC(O)CC(O)C(C)C(O)/C=C/C(C)C(C(C)CCCCCCCCN=C(N)N)OC1=O)CC(O)C2O` (stereo not given), for which the half-inhibitory concentration (IC50) was 4.77 µM.

As to `O=C(c1cnccn1)N1CCc2[nH]c3ccc(F)cc3c2C1`, the IC50 is > 50 µM (inactive).

For the compound `COc1ccccc1-n1nnc(C(=O)Nc2ccc(Oc3ccccc3)cc2)c1C`, the half-maximal inhibitory concentration (IC50) is 6.16 µM.

In the case of `Oc1ccc(-c2nc3cnccn3c2NCCc2ccccc2)c(O)c1`, the IC50 is > 50 µM (inactive).

With `Cc1ccc2nc(NC(=O)CSc3nnc(-c4ccncc4)n3C3CC3)sc2c1`, the 50% inhibitory concentration (IC50) was 4.17 µM.

`COc1ncccc1CN1CCn2c(Cn3cccn3)cnc2C1C` (stereo not given): the IC50 is > 50 µM (inactive).

Consider `Cc1cccc(NC(=O)CSc2nnc(-c3n[nH]c4c3CCC4)n2N)c1`, for which the IC50 was 26.6 µM.

Regarding `CC(=O)c1ccc(NC(=O)C2CCN(c3cncnc3N3CCCC3)CC2)cc1`, the IC50 is 0.674 µM.

With `CN1CC2CN(C(=O)Nc3cccnc3)CCN2Cc2ccccc21` (stereo not given), the IC50 was > 50 µM (inactive).

Take `CC(Sc1n[nH]c2nc3ccccc3n12)C(=O)Nc1ccc2c(c1)OCCO2` (stereo not given): the IC50 is 37.5 µM.

In the case of `C[C@@H](C(=O)NCc1ccc(F)cc1)N1C(=O)N2CCc3c([nH]c4ccccc34)[C@@]2(C)C1=O`, the IC50 was 14.9 µM.

For the compound `C/C=C\C1=CC(=O)[C@]23C[C@H]2[C@]2(C)CO[C@@]1(O)[C@@]3(O)O2`, the IC50 was > 50 µM (inactive).

As to `CCn1cc(-c2nc(-c3ccccn3)no2)c(=O)c2cc(F)ccc21`, the IC50 was 26.5 µM.

As for `c1cnc(-c2n[nH]c(C3CCN(C4CCNC4)CC3)n2)cn1` (stereo not given), the IC50 was > 50 µM (inactive).

Turning to `Cn1nccc1C(=O)N1CCCCC1c1ncc(Cc2ccc(Cl)cc2)o1` (stereo not given), the IC50 is > 50 µM (inactive).

On to `CCOc1ccc(CC(=O)Nc2ccc(-c3cn4cccnc4n3)cc2)cc1`, for which the IC50 was 14.6 µM.

As to `Cc1ccc(NC(=O)C2CCN(c3cncnc3N3CCCC3)CC2)cc1`, the IC50 is 0.456 µM.

Regarding `CN1c2ccccc2CN(CC(N)=O)CC1Cc1ccccc1` (stereo not given), the IC50 was > 50 µM (inactive).

On to `O=C(OCc1cccc(Cl)c1)c1ccc2ccccc2n1`, for which the IC50 was 0.36 µM.

`Cc1ccccc1NC(=O)c1ccn(COc2ccc(Cl)cc2)n1`: the IC50 was 13.3 µM.

On to `Cc1nc2nc(SCc3nc4ccccc4n3C)[nH]c2cc1Br`, for which the IC50 was 2.9 µM.

Take `Cc1nc(SCC#N)c2oc3ccccc3c2n1`: the IC50 is 40 µM.

Regarding `CN(C)CCc1cc2c(c3c1ccc1ccccc13)OCO2`, the IC50 is 4.59 µM.

For `Nc1ccccc1SCc1noc(-c2cccs2)n1`, the half-inhibitory concentration (IC50) was 6.61 µM.

On to `COc1ccc(-c2nonc2NC(=O)C(c2ccccc2)c2ccccc2)cc1OC`, for which the IC50 was > 50 µM (inactive).

As to `COc1ccccc1NC(=O)c1nn(-c2cccc(F)c2)c(OC)cc1=O`, the IC50 was 25.1 µM.

Regarding `O=C(C(c1ccccc1)c1ccccc1)N1CCC(c2nc3c(nnn3Cc3c(F)cccc3Cl)c(=O)[nH]2)CC1`, the IC50 was 6.96 µM.
